Source: ChEMBL document CHEMBL3400114, “The design, synthesis and biological evaluation of conformationally restricted 4-substituted-2,6-dimethylfuro[2,3-d]pyrimidines as multi-targeted receptor tyrosine kinase and microtubule inhibitors as potential antitumor agents” (Bioorg Med Chem, 2015)

Key:
[1] = Growth inhibition of human OVCAR8 cells after 48 hrs by sulforhodamine B assay; assay type: functional; settings: OVCAR-8, 48 h
[2] = Growth inhibition of human SF295 cells after 48 hrs by sulforhodamine B assay; assay type: functional; settings: SF-295, 48 h
[3] = system: A498; assay: Growth inhibition of human A498 cells after 48 hrs by sulforhodamine B assay; assay type: functional; settings: A498, 48 h
[4] = system: MDA-MB-468; assay: Growth inhibition of human MDA-MB-468 cells after 48 hrs by sulforhodamine B assay; assay type: functional; settings: MDA-MB-468, 48 h
[5] = target: Tubulin (Bos taurus) (UniProt Q6B856+Q862L2+Q862F3); assay: Displacement of [3H]colchicine from bovine brain tubulin assembly at 5 uM
[6] = system: NCI-H226; assay: Growth inhibition of human NCI-H226 cells after 48 hrs by sulforhodamine B assay; assay type: functional; settings: NCI-H226, 48 h
[7] = Growth inhibition of human HCT116 cells after 48 hrs by sulforhodamine B assay; assay type: functional; settings: HCT-116, 48 h
[8] = system: DU-145; assay: Growth inhibition of human DU145 cells after 48 hrs by sulforhodamine B assay; assay type: functional; settings: DU-145, 48 h
[9] = Growth inhibition of human EKVX cells after 48 hrs by sulforhodamine B assay; assay type: functional
[10] = Growth inhibition of human UACC62 cells after 48 hrs by sulforhodamine B assay; assay type: functional; settings: UACC-62, 48 h
[11] = system: HeLa; assay: Antiproliferative activity against human HeLa cells overexpressing wild type beta3 tubulin after 48 hrs by sulforhodamine B assay; assay type: functional, cell-based
[12] = system: NCI-H23; assay: Growth inhibition of human NCI-H23 cells after 48 hrs by sulforhodamine B assay; assay type: functional; settings: NCI-H23, 48 h
[13] = Growth inhibition of human OVCAR4 cells after 48 hrs by sulforhodamine B assay; assay type: functional; settings: OVCAR-4, 48 h
[14] = Antiproliferative activity against human SKOV3 cells overexpressing wild type beta3 tubulin after 48 hrs by sulforhodamine B assay; assay type: functional, cell-based; settings: SK-OV-3, 48 h
[15] = system: A549; assay: Growth inhibition of human A549 cells after 48 hrs by sulforhodamine B assay; assay type: functional; settings: A549, 48 h
[16] = system: IGROV-1; assay: Growth inhibition of human IGROV1 cells after 48 hrs by sulforhodamine B assay; assay type: functional; settings: IGROV-1, 48 h
[17] = system: U-251; assay: Growth inhibition of human U251 cells after 48 hrs by sulforhodamine B assay; assay type: functional; settings: U-251, 48 h
[18] = system: NCI-H522; assay: Growth inhibition of human NCI-H522 cells after 48 hrs by sulforhodamine B assay; assay type: functional; settings: NCI-H522, 48 h
[19] = system: Malme-3M; assay: Growth inhibition of human MALME-3M cells after 48 hrs by sulforhodamine B assay; assay type: functional
[20] = system: M14; assay: Growth inhibition of human M14 cells after 48 hrs by sulforhodamine B assay; assay type: functional; settings: M14, 48 h
[21] = system: 786-0; assay: Growth inhibition of human 786-0 cells after 48 hrs by sulforhodamine B assay; assay type: functional; settings: 786-0, 48 h
[22] = system: SNB-19; assay: Growth inhibition of human SNB19 cells after 48 hrs by sulforhodamine B assay; assay type: functional; settings: SNB-19, 48 h
[23] = system: SW-620; assay: Growth inhibition of human SW620 cells after 48 hrs by sulforhodamine B assay; assay type: functional; settings: SW-620, 48 h
[24] = Growth inhibition of human RXF393 cells after 48 hrs by sulforhodamine B assay; assay type: functional; settings: RXF 393, 48 h
[25] = system: HOP-62; assay: Growth inhibition of human HOP62 cells after 48 hrs by sulforhodamine B assay; assay type: functional; settings: HOP-62, 48 h
[26] = system: KM12; assay: Growth inhibition of human KM12 cells after 48 hrs by sulforhodamine B assay; assay type: functional; settings: KM12, 48 h
[27] = Growth inhibition of human PC3 cells after 48 hrs by sulforhodamine B assay; assay type: functional; settings: PC-3, 48 h
[28] = Growth inhibition of human MOLT4 cells after 48 hrs by sulforhodamine B assay; assay type: functional; settings: MOLT-4, 48 h
[29] = system: MDA-MB-435; assay: Growth inhibition of human MDA-MB-435 cells after 48 hrs by sulforhodamine B assay; assay type: functional; settings: MDA-MB-435, 48 h
[30] = system: K562; assay: Growth inhibition of human K562 cells after 48 hrs by sulforhodamine B assay; assay type: functional; settings: K562, 48 h
[31] = Induction of microtubule depolymerization in rat A10 cells after 18 hrs by indirect immunofluorescence assay; assay type: cell-based
[32] = Growth inhibition of human HCC2998 cells after 48 hrs by sulforhodamine B assay; assay type: functional; settings: HCC 2998, 48 h
[33] = system: ACHN; assay: Growth inhibition of human ACHN cells after 48 hrs by sulforhodamine B assay; assay type: functional
[34] = system: HT-29; assay: Growth inhibition of human HT-29 cells after 48 hrs by sulforhodamine B assay; assay type: functional; settings: HT-29, 48 h
[35] = system: TK-10; assay: Growth inhibition of human TK10 cells after 48 hrs by sulforhodamine B assay; assay type: functional; settings: TK-10, 48 h
[36] = system: SK-MEL-2; assay: Growth inhibition of human SK-MEL-2 cells after 48 hrs by sulforhodamine B assay; assay type: functional; settings: SK-MEL-2, 48 h
[37] = Growth inhibition of human HOP92 cells after 48 hrs by sulforhodamine B assay; assay type: functional; settings: HOP-92, 48 h
[38] = system: SK-MEL-5; assay: Growth inhibition of human SK-MEL-5 cells after 48 hrs by sulforhodamine B assay; assay type: functional; settings: SK-MEL-5, 48 h
[39] = system: SF-268; assay: Growth inhibition of human SF268 cells after 48 hrs by sulforhodamine B assay; assay type: functional; settings: SF-268, 48 h
[40] = system: NCI-H322M; assay: Growth inhibition of human NCI-H322M cells after 48 hrs by sulforhodamine B assay; assay type: functional
[41] = Growth inhibition of human Hs 578T cells after 48 hrs by sulforhodamine B assay; assay type: functional
[42] = system: NCI/ADR-RES; assay: Growth inhibition of human NCI/ADR-RES cells after 48 hrs by sulforhodamine B assay; assay type: functional
[43] = Growth inhibition of human […] cells after 48 hrs by sulforhodamine B assay; assay type: functional
[44] = system: CAKI-1; assay: Growth inhibition of human Caki1 cells after 48 hrs by sulforhodamine B assay; assay type: functional; settings: CAKI-1, 48 h
[45] = system: CCRF-CEM; assay: Growth inhibition of human CCRF-CEM cells after 48 hrs by sulforhodamine B assay; assay type: functional
[46] = system: MDA-MB-435; assay: Antiproliferative activity against human MDA-MB-435 cells after 48 hrs by sulforhodamine B assay; assay type: functional, cell-based; settings: MDA-MB-435, 48 h
[47] = Growth inhibition of human SF539 cells after 48 hrs by sulforhodamine B assay; assay type: functional; settings: SF-539, 48 h
[48] = system: NCI-H460; assay: Growth inhibition of human NCI-H460 cells after 48 hrs by sulforhodamine B assay; assay type: functional; settings: NCI-H460, 48 h
[49] = Growth inhibition of human BT549 cells after 48 hrs by sulforhodamine B assay; assay type: functional; settings: BT-549, 48 h
[50] = Growth inhibition of human LOXIMVI cells after 48 hrs by sulforhodamine B assay; assay type: functional; settings: LOX IMVI
[51] = system: MDA-MB-231; assay: Growth inhibition of human MDA-MB-231 cells after 48 hrs by sulforhodamine B assay; assay type: functional; settings: MDA-MB-231, 48 h

COc1ccc2c(c1)CCCN2c1nc(C)nc2oc(C)cc12
< 10 nM: GI50 [1] | GI50 [2] | GI50 [3] | GI50 [4] | GI50 [7] | GI50 [8] | GI50 [9] | GI50 [10] | GI50 [12] | GI50 [15] | GI50 [16] | GI50 [17] | GI50 [18] | GI50 [19] | GI50 [20] | GI50 [21] | GI50 [22] | GI50 [23] | GI50 [24] | GI50 [25] | GI50 [26] | GI50 [27] | GI50 [29] | GI50 [30] | GI50 [33] | GI50 [34] | GI50 [35] | GI50 [36] | GI50 [38] | GI50 [40] | GI50 [41] | GI50 [42] | GI50 [43] | GI50 [44] | GI50 [45] | GI50 [47] | GI50 [48] | GI50 [49] | GI50 [50]
51 nM: GI50 [13]
9.8 nM: IC50 [46]
12.9 nM: IC50 [14]
11.4 nM: GI50 [51]
13 nM: GI50 [6]
21 nM: EC50 [31]
16.8 nM: GI50 [39]
12 nM: GI50 [32]
9.1 nM: IC50 [11]
58.6 nM: GI50 [37]
96%: inhibition [5]
15 nM: GI50 [28]
